Like-named read-outs stand apart in the source and are kept apart here.
Key:
Format in all cases: in vivo
[1] = test system: Pyrenophora teres; assay: Pyrenophora teres-test (barley)/preventive
Protocol: (§1) Solvent: 49 parts by weight of n,n-dimethylacetamid
(§2) Emulsifier: 1 part by weight of alkylaryl polyglycol ether
(§3) To produce a suitable preparation of active compound, 1 part by weight of active compound or active compound combination is mixed with the stated amounts of solvent and emulsifier, and the concentrate is diluted with water to the desired concentration. To test for preventive activity, young plants are sprayed with the preparation of active compound or active compound combination at the stated rate of application. After the spray coating has been dried, the plants are sprayed with a spore suspension of Pyrenophora teres. The plants remain for 48 hours in an incubation cabinet at approximately 20° C. and a relative atmospheric humidity of approximately 100%. The plants are placed in the greenhouse at a temperature of approximately 20° C. and a relative atmospheric humidity of approximately 80%. The test is evaluated 8 days after the inoculation. 0% means an efficacy which corresponds to that of the untreated control, while an efficacy of 100% means that no disease is observed.

[2] = test system: Puccinia triticina; assay: Puccinia triticina-test (wheat)/preventive; conditions: Table M; 500 ppm a.i.
Protocol: as §1, §2
as §3, with “Puccinia triticina.” for “Pyrenophora teres.”

[3] = test system: Phytophthora infestans; assay: whole plant or invertebrate; conditions: Phytophthora infestans, 72 h; for pest or weed control at 12.5 ppm: 12.5 ppm a.i.; for pest or weed control at 50 ppm: 50 ppm a.i.; for pest or weed control at 10 ppm: 10 ppm a.i.; for pest or weed control at 20 ppm: 20 ppm a.i.
[4] = test system: Septoria tritici; assay: Septoria tritici-test (wheat)/preventive; conditions: Table H
Protocol: as §1, §2
as §3, with “suspension of Septoria tritici. The plants” for “suspension of Pyrenophora teres. The plants”, “of approximately 100% and afterwards for 60 hours at approximately 15° C. in a translucent incubation cabinet at a relative atmospheric humidity of approximately 100%. The” for “of approximately 100%. The”, “of approximately 15° C. and” for “of approximately 20° C. and”, “is evaluated 21 days after” for “is evaluated 8 days after”

[5] = test system: Blumeria graminis fsp. tritici; assay: Blumeria test (wheat)/preventive; conditions: Table G; 500 ppm a.i.
Protocol: as §1, §2
To produce a suitable preparation of active compound, 1 part by weight of active compound or active compound combination is mixed with the stated amounts of solvent and emulsifier, and the concentrate is diluted with water to the desired concentration. To test for preventive activity, young plants are sprayed with the preparation of active compound or active compound combination at the stated rate of application. After the spray coating has been dried, the plants are dusted with spores of Blumeria graminis fsp. tritici. The plants are placed in the greenhouse at a temperature of approximately 18° C. and a relative atmospheric humidity of approximately 80% to promote the development of mildew pustules. The test is evaluated 7 days after the inoculation. 0% means an efficacy which corresponds to that of the untreated control, while an efficacy of 100% means that no disease is observed.

[6] = test system: Fusarium graminearum; conditions: Table L; 500 ppm a.i.
[7] = test system: Venturia inaequalis; assay: Venturia test (apples)/protective; conditions: Table D
Protocol: Solvent: 24.5 parts by weight of acetone
• 24.5 parts by weight of dimethylacetamide Emulsifier: 1 part by weight of alkylaryl polyglycol ether
To produce a suitable preparation of active compound, 1 part by weight of active compound is mixed with the stated amounts of solvent and emulsifier, and the concentrate is diluted with water to the desired concentration. To test for protective activity, young plants are sprayed with the preparation of active compound at the stated rate of application. After the spray coating has dried on, the plants are inoculated with an aqueous conidia suspension of the causal agent of apple scab (Venturia inaequalis) and then remain for 1 day in an incubation cabinet at approximately 20° C. and a relative atmospheric humidity of 100%. The plants are then placed in a greenhouse at approximately 21° C. and a relative atmospheric humidity of approximately 90%. The test is evaluated 10 days after the inoculation. 0% means an efficacy which corresponds to that of the control, while an efficacy of 100% means that no disease is observed.

[8] = test system: Leptosphaeria nodorum; assay: Leptosphaeria nodorum test (wheat)/preventive; conditions: Parastagonospora nodorum, 192 h, Table K, read-out: Efficacy in % found
Protocol: as §1, §2
as §3, with “suspension of Leptosphaeria nodorum. The plants” for “suspension of Pyrenophora teres. The plants”, “of approximately 22° C. and” for “of approximately 20° C. and”

[9] = read-out: Efficacy in % found, Table A, test 1
[10] = read-out: Efficacy in % found, Table A, test 5
[11] = read-out: Efficacy in % found, Table A, test 6

In the case of `Cn1c(=O)c2sc3c(=O)n(C)c(=O)c3sc2c1=O` [(I-1), 2,6-dimethyl-1H,5H-[1,4]dithiino[2,3-c:5,6-c′]dipyrrole-1,3,5,7(2H,6H)-tetrone], the “Efficacy in % found” value ([1]; Table I1, 500 ppm a.i.) is reported as 10%, the “Efficacy in % found” value ([1]; Table I1, 1000 ppm a.i.) is reported as 44% and the “Efficacy in % found” value ([1]; Table I2, 1000 ppm a.i.) is reported as 22%. The “Efficacy in % found” value [2] was 10%, the pest or weed control at 12.5 ppm [3, 9] was 0% and the pest or weed control at 25 ppm ([3]; read-out: Efficacy in % found, Table A, test 1, 25 ppm a.i.) was 5%. For the same compound, the pest or weed control at 50 ppm [3, 9] was 18%, the pest or weed control at 12.5 ppm ([3]; read-out: Efficacy in % found, Table A, test 2) was 35% and the pest or weed control at 50 ppm ([3]; read-out: Efficacy in % found, Table A, test 3) was 36%. The pest or weed control at 50 ppm ([3]; read-out: Efficacy in % found, Table A, test 4) was 47%, the pest or weed control at 10 ppm [3, 10] was 0% and the pest or weed control at 20 ppm [3, 10] was 0%. It also gave a pest or weed control at 10 ppm [3, 11] of 0%, a pest or weed control at 20 ppm [3, 11] of 9% and a pest or weed control at 40 ppm ([3]; read-out: Efficacy in % found, Table A, test 6, 40 ppm a.i.) of 11%. The pest or weed control at 12.5 ppm ([3]; read-out: Efficacy in % found, Table A, test 7) was 39%, the “Efficacy in % found” value ([4]; 500 ppm a.i.) was 30% and the “Efficacy in % found” value ([4]; 1000 ppm a.i.) was 50%. The “Efficacy in % found” value [5] was 75%, the “Efficacy in % found” value [6] was 0% and the “Efficacy in % found” value ([7]; test 1, 12.5 ppm a.i.) was 26%. For the same compound, the “Efficacy in % found” value ([7]; test 1, 25 ppm a.i.) was 72%, the “Efficacy in % found” value ([7]; test 2, 12.5 ppm a.i.) was 14% and the pest or weed control at 500 ppm ([8]; 500 ppm a.i.) was 13%. It also gave a pest or weed control at 1000 ppm ([8]; 1000 ppm a.i.) of 11%.

Source: patent US9006139B2, “Active compound combinations” (Bayer Intellectual Property GmbH, priority 2009, dated 2015)
